What all share (assay type): cell-based
The test system of one assay is UACC-62. As to the kind of experiment: NCI COMPARE panel (SRB growth inhibition), UACC-62. To be noted: Homo sapiens; Melanoma, UACC-62, 48 h. How it is done:
(§1) The human tumor cell lines of the cancer screening panel are grown in RPMI 1640 medium containing 5% fetal bovine serum and 2 mM L-glutamine. For a typical screening experiment, cells are inoculated into 96 well microtiter plates in 100 µL at plating densities ranging from 5,000 to 40,000 cells/well depending on the doubling time of individual cell lines. After cell inoculation, the microtiter plates are incubated at 37° C., 5% CO2, 95% air and 100% relative humidity for 24 h prior to addition of experimental drugs.
(§2) After 24 h, two plates of each cell line are fixed in situ with TCA, to represent a measurement of the cell population for each cell line at the time of drug addition (Tz). Experimental drugs are solubilized in dimethyl sulfoxide at 400-fold the desired final maximum test concentration and stored frozen prior to use. […]
(§3) Following drug addition, the plates are incubated for an additional 48 h at 37° C., 5 % CO2, 95% air, and 100% relative humidity. […] Bound stain is subsequently solubilized with 10 mM trizma base, and the absorbance is read on an automated plate reader at a wavelength of 515 nm. […] Using the seven absorbance measurements [time zero, (Tz), control growth, (C), and test growth in the presence of drug at the five concentration levels (Ti)], the percentage growth is calculated at each of the drug concentrations levels. Percentage growth inhibition is calculated as: […]

A further assay relates to HOP-92. As to the kind of experiment: NCI COMPARE panel (SRB growth inhibition), HOP-92. To be noted: Homo sapiens; Non-Small Cell Lung Cancer, HOP-92, 48 h. How it is done: as §1, §2, §3
The next assay concerns HL-60(TB). As to the kind of experiment: NCI COMPARE panel (SRB growth inhibition), HL-60(TB). To be noted: Homo sapiens, Leukemia, 48 h. As for the experimental part: as §1, §2, §3
A further assay has as its system T-47D. Put plainly: NCI COMPARE panel (SRB growth inhibition), T-47D. To be noted: Homo sapiens, T47D, Breast Cancer, 48 h. How it is done:
as §1, §2, §3

Some results are limits rather than exact numbers.

This is an account of results in patent publication US20230133958A1, “COMPOUNDS USEFUL IN MODULATING EGFR AND PI3K” (Mekanistic Therapeutics LLC, priority 2021, published 2023).

Consider `CS(=O)(=O)Nc1cc(-c2ccc3ncc(C#N)c(Nc4cccc(Cl)c4F)c3c2)cnc1Cl` [Compound 10, N-[2-chloro-5-[4-(3-chloro-2-fluoro-anilino)-3-cyano-6-quinolyl]-3-pyridyl]methanesulfonamide], for which the GI50 in the assay with UACC-62 is 75 to 125 nM; in the assay with HOP-92, not above 75 nM; with HL-60(TB) it was not above 75 nM; with T-47D, 125 to 250 nM.

Turning to `CS(=O)(=O)Nc1cc(-c2ccc3ncnc(Nc4cccc(Cl)c4F)c3c2)cnc1Cl` [Compound 6, N-[2-chloro-5-[4-(3-chloro-2-fluoro-anilino)quinazolin-6-yl]-3-pyridyl] methanesulfonamide], the GI50 is not above 75 nM in the assay with UACC-62, not above 75 nM in the assay on HOP-92, 75 to 125 nM in the assay with HL-60(TB) and not above 75 nM in the assay with T-47D.
